ChEMBL document CHEMBL5303765, “Data for DCP probe BAY-7081” (2023)

Experiments:
Details in all cases: Compound concentration 10.0 uM
[1] = molecular target: Beta-1 adrenergic receptor (Homo sapiens) (UniProt P08588); test: Adrenergic beta1 Eurofins Panlabs panel
[2] = molecular target: T1, Alpha-2C adrenergic receptor (Homo sapiens) (UniProt P18825); test: Adrenergic alpha2C Eurofins Panlabs panel
T1 sequence (whole entry): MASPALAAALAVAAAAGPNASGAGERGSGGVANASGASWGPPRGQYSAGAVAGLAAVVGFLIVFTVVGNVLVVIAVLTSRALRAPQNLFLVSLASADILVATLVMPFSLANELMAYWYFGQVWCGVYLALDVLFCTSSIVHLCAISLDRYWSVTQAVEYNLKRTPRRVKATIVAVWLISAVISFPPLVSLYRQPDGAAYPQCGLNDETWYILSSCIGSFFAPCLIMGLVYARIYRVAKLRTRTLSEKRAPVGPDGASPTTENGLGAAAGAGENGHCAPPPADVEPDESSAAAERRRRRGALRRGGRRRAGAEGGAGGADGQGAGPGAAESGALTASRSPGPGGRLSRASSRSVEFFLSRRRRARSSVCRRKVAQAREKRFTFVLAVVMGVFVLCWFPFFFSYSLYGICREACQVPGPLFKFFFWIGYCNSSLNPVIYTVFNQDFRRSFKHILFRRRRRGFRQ

[3] = molecular target: 3-hydroxy-3-methylglutaryl-coenzyme A reductase (Homo sapiens) (UniProt P04035); test: HMG-CoA Reductase Eurofins Panlabs panel
Sequence of 3-hydroxy-3-methylglutaryl-coenzyme A reductase (Homo sapiens) (P04035 whole entry): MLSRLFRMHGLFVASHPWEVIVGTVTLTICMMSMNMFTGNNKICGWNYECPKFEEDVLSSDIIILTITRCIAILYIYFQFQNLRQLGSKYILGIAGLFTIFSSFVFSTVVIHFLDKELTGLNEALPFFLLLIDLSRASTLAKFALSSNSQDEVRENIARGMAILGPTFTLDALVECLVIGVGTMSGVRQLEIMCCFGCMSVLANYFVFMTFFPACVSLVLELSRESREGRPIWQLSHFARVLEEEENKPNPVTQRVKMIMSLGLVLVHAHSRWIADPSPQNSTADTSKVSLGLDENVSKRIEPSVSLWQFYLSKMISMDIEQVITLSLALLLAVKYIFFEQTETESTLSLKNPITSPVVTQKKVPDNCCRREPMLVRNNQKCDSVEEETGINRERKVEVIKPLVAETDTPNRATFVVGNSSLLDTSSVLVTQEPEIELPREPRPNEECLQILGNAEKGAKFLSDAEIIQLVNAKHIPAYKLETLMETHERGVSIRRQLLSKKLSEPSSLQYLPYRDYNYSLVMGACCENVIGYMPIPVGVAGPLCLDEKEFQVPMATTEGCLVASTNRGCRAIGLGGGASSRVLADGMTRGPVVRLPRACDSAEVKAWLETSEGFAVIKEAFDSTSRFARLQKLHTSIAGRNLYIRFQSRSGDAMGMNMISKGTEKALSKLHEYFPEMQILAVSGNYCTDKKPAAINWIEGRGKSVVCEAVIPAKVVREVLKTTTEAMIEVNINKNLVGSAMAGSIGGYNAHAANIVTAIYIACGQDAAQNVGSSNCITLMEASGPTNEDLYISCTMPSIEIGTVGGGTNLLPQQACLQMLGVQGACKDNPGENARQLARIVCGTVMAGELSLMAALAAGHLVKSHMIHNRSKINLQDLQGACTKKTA

Sequence of Beta-1 adrenergic receptor (Homo sapiens) (P08588 whole entry, looked up): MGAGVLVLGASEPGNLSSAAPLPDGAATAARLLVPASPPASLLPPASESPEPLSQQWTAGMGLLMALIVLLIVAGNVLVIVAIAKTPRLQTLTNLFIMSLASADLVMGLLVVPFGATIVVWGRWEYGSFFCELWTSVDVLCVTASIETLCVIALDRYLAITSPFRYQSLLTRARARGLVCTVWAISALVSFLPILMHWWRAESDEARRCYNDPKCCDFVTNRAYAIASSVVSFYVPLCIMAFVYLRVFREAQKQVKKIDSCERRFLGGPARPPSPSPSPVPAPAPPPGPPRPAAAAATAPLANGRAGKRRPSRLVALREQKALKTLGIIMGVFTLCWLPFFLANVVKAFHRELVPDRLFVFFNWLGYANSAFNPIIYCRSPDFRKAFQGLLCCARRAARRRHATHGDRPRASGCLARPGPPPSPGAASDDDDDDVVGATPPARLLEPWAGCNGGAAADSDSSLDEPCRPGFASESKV

For `CCC[C@H]1CNCc2c1[nH]c(=O)c(C#N)c2N1CCC2(CC1)CC2`, the inhibition [1] was 5.2%, the inhibition [2] was -1% and the inhibition [3] was 8%.
